SMILES strings stand for the structures. pIC50: −log10 of the molar value. Structures can show the parent of a compound that is named as a salt.

The target of assay [1] is Human indoleamine 2,3-dioxygenase1 (hIDO1) (Homo sapiens (Human), UniProt P14902). The assay is described as follows: In-vitro IDO1 enzyme assay (conversion of L-tryptophan to KYN). The assay is classed as biochemical. As to conditions: read-out: IC50 (IDO1) Enz. The method, boiled down:
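Kynurenine formation quantified by HPLC absorbance at 360 nm or LC/MS/MS after TCA quench and 15 min at 65 °C. Reaction: 10 nM N-His hIDO1, 30 μM tryptophan, ascorbate/methylene blue/catalase, pH 6.5 phosphate buffer, 37 °C for 30 min. Inhibition relative to 1% DMSO vehicle, fitted to IC50.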

The next assay addresses IDO1 in HeLa cells (Homo sapiens (Human), UniProt P14902). The assay is described as follows: HeLa cell based IDO1 assay (IFNγ-induced, KYN in supernatant). An outline of the steps:
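Kynurenine in the supernatant, quantified by C-18 HPLC with 360 nm absorbance after TCA hydrolysis (65 °C, 15 min), was the read-out. Compounds (typically 10 μM to 1 nM) were added in HBSS containing 80 μM tryptophan to HeLa cells pre-induced overnight with 50 ng/mL IFNγ. IC50 came from nonlinear fits of % inhibition versus 1% DMSO vehicle.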

Assay [2] concerns the target Human TDO (hTDO)-transfected CHO-K1 cells (Homo sapiens (Human), UniProt P48775). The assay is described as follows: CHO-K1 cell based TDO assay. The note with it: hTDO cellular assay. The method, boiled down:
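Kynurenine output was read by LC/MS/MS after TCA precipitation and 15 min at 65° C. Before that, CHO-K1 cells stably carrying human TDO2 were incubated 2 h with compounds (typically 31 μM to 10 nM) and 80 μM L-tryptophan in HBSS. Decrease versus DMSO vehicle gave percent inhibition, then IC50.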

Sequence of Human TDO (hTDO)-transfected CHO-K1 cells (P48775 whole entry): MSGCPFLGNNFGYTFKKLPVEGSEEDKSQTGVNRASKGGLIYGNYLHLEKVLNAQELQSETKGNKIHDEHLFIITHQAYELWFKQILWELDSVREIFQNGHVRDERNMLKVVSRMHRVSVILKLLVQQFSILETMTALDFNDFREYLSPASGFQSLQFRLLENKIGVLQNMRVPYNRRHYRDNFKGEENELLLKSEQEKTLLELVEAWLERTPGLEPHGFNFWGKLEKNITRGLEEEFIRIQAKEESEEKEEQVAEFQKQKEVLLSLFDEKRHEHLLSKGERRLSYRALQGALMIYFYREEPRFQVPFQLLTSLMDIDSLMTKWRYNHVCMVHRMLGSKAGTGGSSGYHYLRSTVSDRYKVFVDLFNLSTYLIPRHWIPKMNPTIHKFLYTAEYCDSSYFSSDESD
Sequence of IDO1 in HeLa cells (P14902 whole entry): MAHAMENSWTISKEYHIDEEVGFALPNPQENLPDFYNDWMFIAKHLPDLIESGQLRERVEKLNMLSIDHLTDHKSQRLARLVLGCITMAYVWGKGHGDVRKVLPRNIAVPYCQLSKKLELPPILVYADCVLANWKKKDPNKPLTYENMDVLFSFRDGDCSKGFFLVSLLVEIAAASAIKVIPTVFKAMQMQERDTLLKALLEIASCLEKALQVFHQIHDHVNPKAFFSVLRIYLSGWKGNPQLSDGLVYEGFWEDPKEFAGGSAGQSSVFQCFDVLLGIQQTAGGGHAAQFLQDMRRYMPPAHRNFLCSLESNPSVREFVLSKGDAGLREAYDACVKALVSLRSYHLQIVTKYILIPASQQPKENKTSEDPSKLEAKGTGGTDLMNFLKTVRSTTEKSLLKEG
Sequence of Human indoleamine 2,3-dioxygenase1 (hIDO1) (P14902 whole entry): as above

In general, pIC50 refers to −log10 of the IC50, conventionally taken in molar units. For the compound `COc1cc2c(Nc3ccc(F)c(Cl)c3)c(N)oc2c(-c2ccc(C(N)=O)cc2)n1` [Compound 175, 4-(2-amino-3-((3-chloro-4-fluorophenyl)amino)-5-methoxyfuro[2,3-c]pyridin-7-yl)benzamide], the pIC50 was over 6.70 in assay [1], over 6.70 against IDO1 in HeLa cells and under 5.70 in assay [2].
As to `Cc1cc(-c2cccc3c(Nc4ccc(F)c(Cl)c4)c(N)sc23)ccn1` [Compound 240, N^3-(3-Chloro-4-fluorophenyl)-7-(2-methylpyridin-4-yl)benzo[b]thiophene-2,3-diamine], the pIC50 in assay [1] is over 6.70; on IDO1 in HeLa cells, over 6.70; in assay [2], under 5.70.
`CNC(=O)c1cc(-c2nccc3c(Nc4ccccc4Cl)c(N)oc23)ccn1` [Compound 219, 4-(2-Amino-3-((2-chlorophenyl)amino)furo[2,3-c]pyridin-7-yl)-N-methylpicolinamide]: the pIC50 in assay [1] was over 6.70; at IDO1 in HeLa cells, over 6.70; in assay [2] it was 5.70 to 6.30.
As for `CC(C)CNC(=O)c1cc(-c2nccc3c(Nc4ccc(F)c(Cl)c4)c(N)oc23)ccn1` [Compound 252, 4-(2-Amino-3-((3-chloro-4-fluorophenyl)amino)furo[2,3-c]pyridin-7-yl)-N-isobutylpicolinamide], the pIC50 in assay [1] is over 6.70; against IDO1 in HeLa cells it was over 6.70; in assay [2], under 5.70.
Turning to `CCCNC(=O)c1cc(-c2nccc3c(Nc4ccc(F)c(Cl)c4)c(N)oc23)ccn1` [Compound 253, 4-(2-Amino-3-((3-chloro-4-fluorophenyl)amino)furo[2,3-c]pyridin-7-yl)-N-propylpicolinamide], the figures for the pIC50 (in assay [1]; at IDO1 in HeLa cells; in assay [2]) were over 6.70, over 6.70 and under 5.70, respectively.
In the case of `Cc1ccc(Nc2c(N)oc3cnccc23)cc1Br` [Compound 21, N^3-(3-Bromo-4-methylphenyl)furo[2,3-c]pyridine-2,3-diamine], the results for the negative logarithm of the IC50 (pIC50) (in assay [1]; at IDO1 in HeLa cells; in assay [2]) were 6.00 to 6.70, over 6.70 and 5.70 to 6.30, respectively.
For `Nc1sc2c(Br)cccc2c1Nc1ccc(F)c(Cl)c1` [Compound 210, 7-Bromo-N^3-(3-chloro-4-fluorophenyl)benzo[b]thiophene-2,3-diamine hydrochloride], in that order: over 6.70, 6.00 to 6.70 and 5.70 to 6.30.
For `Nc1oc2c(-c3cc(F)cc(F)c3)nccc2c1Nc1ccc(F)c(Cl)c1` [Compound 278, N^3-(3-Chloro-4-fluorophenyl)-7-(3,5-difluorophenyl)furo[2,3-c]pyridine-2,3-diamine], in that order: over 6.70, over 6.70 and 5.70 to 6.30.
Turning to `C#Cc1cccc(Nc2c(N)oc3c(C)nccc23)c1` [Compound 93, N^3-(3-ethynylphenyl)-7-methylfuro[2,3-c]pyridine-2,3-diamine], the pIC50 was 6.00 to 6.70 in assay [1], over 6.70 against IDO1 in HeLa cells and 5.70 to 6.30 in assay [2].
On the same counts, the results for `Nc1oc2c(-c3cc(F)nc(F)c3)nccc2c1Nc1ccc(F)c(Cl)c1` [Compound 191, N^3-(3-Chloro-4-fluorophenyl)-7-(2,6-difluoropyridin-4-yl)furo[2,3-c]pyridine-2,3-diamine] are over 6.70, over 6.70 and 5.70 to 6.30.
For `CCOC(=O)Nc1oc2c(-c3ccnc(C)c3)nccc2c1N(C(=O)OCC)c1ccc(F)c(F)c1` [Compound 279, Ethyl (3,4-difluorophenyl)(2-((ethoxycarbonyl)amino)-7-(2-methylpyridin-4-yl)furo[2,3-c]pyridin-3-yl)carbamate], in that order: under 6.00, under 6.00 and under 5.70.
For `Cc1ccc(Nc2c(N)oc3cnccc23)cc1` [Compound 40, N^3-(p-tolyl)Furo[2,3-c]pyridine-2,3-diamine], in that order: under 6.00, over 6.70 and 5.70 to 6.30.
